In the CheMixHub viscosity set:

Experiment: xn = mol fraction of the nth substance listed

CCCCN + CCCCN(CCCC)CCCC
viscosity [mPa·s], 101 kPa
Conditions | x2 = 0.0993 | x2 = 0.193 | x2 = 0.3946 | x2 = 0.4948 | x2 = 0.5888 | x2 = 0.7738 | x2 = 0.8887
303.15 K | 0.5014 | 0.566 | 0.7175 | 0.7961 | 0.8701 | 1.013 | 1.094
313.15 K | 0.4423 | 0.4968 | 0.6233 | 0.688 | 0.7498 | 0.8682 | 0.9377

CCCC(=O)OCC(COC(=O)CCC)OC(=O)CCC + CCCCO
viscosity [mPa·s], 101.33 kPa
Conditions | x1 = 0.1 | x1 = 0.2 | x1 = 0.3 | x1 = 0.4 | x1 = 0.5 | x1 = 0.6 | x1 = 0.7 | x1 = 0.8 | x1 = 0.9
298 K | 2.61 | 3 | 3.46 | 3.99 | 4.58 | 5.23 | 5.96 | 6.73 | 7.66
303 K | 2.31 | 2.64 | 3.03 | 3.48 | 3.97 | 4.54 | 5.14 | 5.77 | 6.54
308 K | 2.04 | 2.33 | 2.68 | 3.06 | 3.45 | 3.95 | 4.45 | 5.01 | 5.64
313 K | 1.83 | 2.08 | 2.38 | 2.7 | 3.06 | 3.48 | 3.9 | 4.37 | 4.89

CCCCCCCCCC(=O)OCC + CCCCO
viscosity [mPa·s], 100 kPa
Conditions | x1 = 0.1006 | x1 = 0.2001 | x1 = 0.3011 | x1 = 0.3996 | x1 = 0.4999 | x1 = 0.6021 | x1 = 0.7009 | x1 = 0.7986 | x1 = 0.9001
293.15 K | 2.504 | 2.299 | 2.212 | 2.15 | 2.125 | 2.139 | 2.168 | 2.2 | 2.258
298.15 K | 2.217 | 2.037 | 1.967 | 1.916 | 1.914 | 1.921 | 1.962 | 1.984 | 2.047
303.15 K | 1.977 | 1.825 | 1.769 | 1.733 | 1.727 | 1.738 | 1.777 | 1.798 | 1.854
308.15 K | 1.764 | 1.643 | 1.596 | 1.568 | 1.569 | 1.581 | 1.608 | 1.639 | 1.687
313.15 K | 1.581 | 1.488 | 1.455 | 1.433 | 1.431 | 1.444 | 1.469 | 1.501 | 1.543
318.15 K | 1.424 | 1.344 | 1.322 | 1.305 | 1.31 | 1.324 | 1.355 | 1.379 | 1.42

CCCCN + CCCCOC(C)=O
303.15 K, 101 kPa
Conditions | viscosity [mPa·s]
x1 = 0.21 | 0.6407
x1 = 0.2909 | 0.637
x1 = 0.4108 | 0.6349
x1 = 0.5598 | 0.6248
x1 = 0.64 | 0.6218
x1 = 0.7026 | 0.6038
x1 = 0.8413 | 0.5869
x1 = 0.9148 | 0.5794

O=C(O)C(Cl)(Cl)Cl + CCCCOC(C)=O
323.15 K, 101 kPa
Conditions | viscosity [mPa·s]
x2 = 0.104 | 4.361
x2 = 0.187 | 3.749
x2 = 0.3013 | 2.85
x2 = 0.379 | 2.406
x2 = 0.494 | 1.798
x2 = 0.584 | 1.419
x2 = 0.7106 | 0.996
x2 = 0.7901 | 0.81
x2 = 0.929 | 0.588

CCCCCCCCCC(=O)OCC + CCCO
viscosity [mPa·s], 100 kPa
Conditions | x1 = 0.1002 | x1 = 0.2005 | x1 = 0.2999 | x1 = 0.4 | x1 = 0.4999 | x1 = 0.601 | x1 = 0.7 | x1 = 0.7998 | x1 = 0.9011
293.15 K | 2.031 | 1.963 | 1.956 | 1.986 | 2.013 | 2.057 | 2.123 | 2.176 | 2.25
298.15 K | 1.809 | 1.759 | 1.757 | 1.786 | 1.814 | 1.854 | 1.912 | 1.97 | 2.029
303.15 K | 1.618 | 1.586 | 1.587 | 1.611 | 1.642 | 1.681 | 1.74 | 1.78 | 1.845
308.15 K | 1.456 | 1.433 | 1.438 | 1.461 | 1.493 | 1.53 | 1.578 | 1.623 | 1.681
313.15 K | 1.315 | 1.299 | 1.309 | 1.333 | 1.364 | 1.403 | 1.446 | 1.486 | 1.538
318.15 K | 1.192 | 1.183 | 1.196 | 1.22 | 1.25 | 1.285 | 1.33 | 1.368 | 1.415

CCCCN + CCCO
viscosity [mPa·s]
Conditions | 298.15 K | 303.15 K | 313.15 K
100 kPa, x2 = 0.1 | 0.534 | – | –
100 kPa, x2 = 0.198 | 0.612 | – | –
100 kPa, x2 = 0.301 | 0.711 | – | –
100 kPa, x2 = 0.417 | 0.846 | – | –
100 kPa, x2 = 0.501 | 0.965 | – | –
100 kPa, x2 = 0.6 | 1.117 | – | –
100 kPa, x2 = 0.695 | 1.273 | – | –
100 kPa, x2 = 0.786 | 1.451 | – | –
100 kPa, x2 = 0.925 | 1.76 | – | –
101.33 kPa, x1 = 0.095 | – | 1.64 | 1.281
101.33 kPa, x1 = 0.1888 | – | 1.48 | 1.159
101.33 kPa, x1 = 0.2913 | – | 1.286 | 1.018
101.33 kPa, x1 = 0.3804 | – | 1.129 | 0.9048
101.33 kPa, x1 = 0.5153 | – | 0.9113 | 0.7453
101.33 kPa, x1 = 0.6163 | – | 0.7686 | 0.6425
101.33 kPa, x1 = 0.7142 | – | 0.6509 | 0.5578
101.33 kPa, x1 = 0.788 | – | 0.5832 | 0.5009
101.33 kPa, x1 = 0.9022 | – | 0.4992 | 0.4349
